These results are taken from patent publication US5530141A, “2,4-diaryl-1,3-dithiolanes; 2,4-diaryl-1,3-dioxolanes; 2,4-diaryl-1,3-oxathiolanes; and 2,5-diaryl-1,3-oxathiolanes for the treatment of disorders mediated by platelet activating factor or products of 5-lipoxygenase” (Center for Innovative Technology, priority 1992, dated 1996).

The target in one assay is T1, RBL 5-LO (Rattus norvegicus, UniProt P12527).
T1 construct: cytosol 5-lipoxygenase of rat basophilic leukemia cells (RBL); endogenous in cells; host or cells: rat basophilic leukemia (RBL) cells
T1 sequence (P12527 1-673): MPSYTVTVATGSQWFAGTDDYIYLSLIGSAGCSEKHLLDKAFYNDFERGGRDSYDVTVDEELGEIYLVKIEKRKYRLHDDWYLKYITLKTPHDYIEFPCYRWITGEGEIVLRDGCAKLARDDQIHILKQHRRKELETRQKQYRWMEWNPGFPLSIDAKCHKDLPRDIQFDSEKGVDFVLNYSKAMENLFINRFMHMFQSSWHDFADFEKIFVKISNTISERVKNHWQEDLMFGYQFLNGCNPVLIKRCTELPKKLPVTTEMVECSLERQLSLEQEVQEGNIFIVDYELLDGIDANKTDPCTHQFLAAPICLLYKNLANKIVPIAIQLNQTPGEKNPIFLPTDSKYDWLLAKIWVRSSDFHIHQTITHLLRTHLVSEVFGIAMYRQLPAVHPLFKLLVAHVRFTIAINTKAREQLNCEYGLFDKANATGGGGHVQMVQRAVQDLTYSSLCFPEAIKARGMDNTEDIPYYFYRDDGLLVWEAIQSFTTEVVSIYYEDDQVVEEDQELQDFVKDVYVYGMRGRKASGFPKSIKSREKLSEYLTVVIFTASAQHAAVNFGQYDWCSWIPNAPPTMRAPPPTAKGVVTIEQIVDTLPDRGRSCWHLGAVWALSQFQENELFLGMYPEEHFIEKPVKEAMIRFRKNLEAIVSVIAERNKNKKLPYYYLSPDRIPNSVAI
Put plainly: RBL 5-LO inhibition (Table 2). In kind it is biochemical. To be noted: unit inferred. An excerpt: A wide variety of biological assays have also been used to evaluate the ability of a compound to inhibit the enzyme 5-lipoxygenase. For example, a cytosol 5-lipoxygenase of rat basophilic leukemia cells (RBL) has been widely utilized in studies on leukotriene biosynthesis. Compounds that inhibit 5-lipoxygenase decrease the levels of leukotrienes.

Another assay deals with PAF receptor. The settings on record: cited from earlier work.
A further assay relates to 5-lipoxygenase. The settings on record: cited from earlier work.
The next assay deals with T2, 5-LO (Rattus norvegicus, UniProt P12527).
T2 sequence (P12527 1-673): T1 sequence (P12527 1-673)
Nature of the assay: 5-LO inhibition (Table 1). The settings on record: for inhibition at 3 µM: read-out: 5-LO, percent @ 3 μM. The format is biochemical.

Assay [1] concerns the target T3, specific receptors on human platelet membranes (PAF receptors) (Homo sapiens, UniProt P25105).
T3 construct: Human platelet membranes were prepared from platelet concentrates obtained from the American Red Cross Blood Services; from tissue; host or cells: human platelets (concentrates from American Red Cross Blood Services, Dedham, Mass.), membrane fractions A and B
Nature of the assay: [3H]PAF binding inhibition on human platelet membranes (Table 1, PAF). The settings on record: [3H]PAF 0.3 nM, pH 7.0, 4 h, 0° C. How it is done: Human platelet membranes were prepared from platelet concentrates obtained from the American Red Cross Blood Services (Dedham, Mass.). After several washes with platelet wash solution (150 mM NaCl, 10 mM Tris, and 2 mM EDTA, pH 7.5), the platelet pellets were resuspended in 5 mM MgCl2, 10 mM Tris, and 2 mM EDTA at pH 7.0. The cells were then quickly frozen with liquid nitrogen and thawed slowly at room temperature. The freezing and thawing procedure was repeated at least three times. For further fractionation of membrane fragments, the lysed membrane suspension was layered over the top of a discontinous sucrose density gradient of 0.25, 1.03, and 1.5M sucrose prepared in 10 mM MgCl2, 10 mM Tris and 2 mM EDTA, pH 7.0, and centrifuged at 63,500×g for 2 hr. The membrane fractions banding between 0.25 and 1.03M (membrane A) and between 1.03 and 1.5M (membrane B) were collected separately. The protein concentration of the membrane preparations was determined by Lowry's method with bovine serum albumin (BSA) as the standard. The membranes were then separated into smaller fractions (4 ml each) and stored at -80° C. and thawed before use.
b) [^3 H]PAF Binding inhibition:
The ability of [^3 H]PAF to bind to specific receptors on human platelet membranes was evaluated at optimal conditions at pH 7.0 and in the presence of 10 mM MgCl2. Membrane protein (100 ug) was added to a final 0.5 ml solution containing 0.15 pmol (0.3 nM concentration) of [^3 H]PAF and a known amount of unlabeled PAF or PAF receptor antagonist in 10 mM MgCl2, 10 mM Tris and 0.25% BSA at pH 7.0. After incubation for four hours at 0° C., the bound and unbound [^3 H]PAF were then separated through a Whatman GF/C glass fiber filter under vacuum. No degradation of filter bound [^3 H]PAF has been detected under this assay condition. The nonspecific binding was defined as the total binding in the presence of excess unlabeled PAF (1 mM) where no further displacement was found with higher concentrations of either unlabeled PAF or PAF analogs or PAF receptor antagonists. The specific binding was defined as the difference between total binding and nonspecific binding.
To determine the relative potency of tested compounds, [^3 H]PAF binding in the presence of inhibitors was normalized in terms of percent inhibition by assigning the total binding in the absence of inhibitors as 0% inhibition and the total binding in the presence of 1 mM unlabeled PAF as 100%. The percent inhibition by the compound can be calculated by the formula expressed below:
% inhibition=[(Total binding-total binding in the presence of
compound)/nonspecific binding]×100%
The IC50 was calculated as the concentration of the inhibitor necessary to obtain 50% inhibition of the specific [^3 H]PAF binding and was calculated by a nonlinear regression computer software program, GraphPad Inplot, version 3.0 (GraphPad software, San Diego, Calif.). Table 1 provides the IC50 values for a number of 2,4-diaryl-1,3-dithiolanes.

The IC50 is the concentration that gives 50% inhibition. The low end stands for greater potency, the high end for weaker potency.

T3 sequence (P25105 whole entry): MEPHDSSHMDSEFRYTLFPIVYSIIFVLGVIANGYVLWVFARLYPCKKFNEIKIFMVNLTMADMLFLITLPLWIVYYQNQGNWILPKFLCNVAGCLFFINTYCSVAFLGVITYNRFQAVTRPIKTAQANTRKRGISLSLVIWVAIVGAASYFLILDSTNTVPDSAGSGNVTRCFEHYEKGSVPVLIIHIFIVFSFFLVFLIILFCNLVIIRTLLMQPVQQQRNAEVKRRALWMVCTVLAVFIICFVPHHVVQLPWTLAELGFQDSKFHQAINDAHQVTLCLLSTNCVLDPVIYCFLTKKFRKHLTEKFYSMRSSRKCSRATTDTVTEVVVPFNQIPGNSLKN

In the case of `COc1cc(C2SCC(c3cc(OC)c(OC)c(OC)c3)S2)cc(CN(O)C(N)=O)c1OC` (stereo not drawn), the concentration for half-maximal inhibition (IC50) against RBL 5-LO is 1.44 µM. The same measure, in the same setting: under `COc1cc(C2SCC(c3cc(OC)c(OC)c(OC)c3)S2)cc(CN(O)C(C)=O)c1OC` (stereo not drawn) stands 0.85 µM. As to `CCCCCCCCCCCCCCCCCCNC(=O)OCC(COP(=O)([O-])OCC[n+]1ccsc1)OC` (racemic) [CV-3988, rac-3-(N-n-octadecyl-carbamoyloxy-w-methoxypropyl-2-thiazolioethyl phosphate], in the assay with PAF receptor, the “PAF receptor antagonist activity” value was “PAF receptor antagonist properties”. Take `C=CCOc1c(NC(=O)N(O)C(C)(C)C)cc([C@H]2O[C@@H](c3cc(OC)c(OC)c(OC)c3)CS2)cc1OC` (relative stereo): half-maximal inhibition at RBL 5-LO (IC50) was put at 0.25 µM. Take `C=CCOc1c(NC(=O)N(O)C(C)(C)C)cc([C@@H]2O[C@@H](c3cc(OC)c(OC)c(OC)c3)CS2)cc1OC` (relative stereo): the 50% inhibitory concentration (IC50) on RBL 5-LO was 0.41 µM. Take `COc1cc([C@H]2CC[C@H](c3cc(OC)c(OC)c(OC)c3)S2)cc(OC)c1OC` (relative stereo) [L-653,150, trans-2,5-bis-(3,4,5-trimethoxyphenyl)tetrahydrothiophene]: the “PAF receptor antagonist activity” value with PAF receptor is “potent PAF antagonist”. Further, the “effect on the enzyme 5-lipoxygenase” value in the assay with 5-lipoxygenase is “moderate inhibitor of 5-lipoxygenase”.

As for `CCCOc1c(OC)cc([C@H]2CC[C@H](c3cc(OC)c(OC)c(OC)c3)O2)cc1S(C)(=O)=O` (relative stereo) [L-659,989, trans-2-(3-methoxy-4-propoxyphenyl-5-methylsulfonyl)-5-(3,4,5-trimethoxyphenyl)tetrahydrofuran], the “PAF receptor antagonist activity” value with PAF receptor is “orally active, potent, competitive PAF receptor antagonist”. Also, the “equilibrium inhibition constant relative to trans-L-652,731” value in the assay with PAF receptor (greater than that of trans-L-652,731) was 10 times. For the compound `COc1cc([C@H]2SC[C@H](c3cc(OC)c(OC)c(OC)c3)S2)cc(NC(=O)N(C)O)c1OC` (relative stereo) [compound 1, Cis and Trans-2-[3,4-dimethoxy-5-(N-hydroxy-N-methylureidyl)phenyl]-4-(3,4,5-trimethoxyphenyl)-1,3-dithiolane], the results for the IC50 (at 5-LO; in assay [1]) were 0.22 µM and 0.259 µM, respectively. As for `COc1cc([C@H]2SC[C@H](c3cc(OC)c(OC)c(OC)c3)S2)cc(NC(=S)N(C)O)c1OC` (relative stereo) [compound 2], on 5-LO, the IC50 was 0.28 µM. As to `COc1cc([C@H]2SC[C@H](c3cc(OC)c(OC)c(OC)c3)S2)cc(NC(=O)N(O)C(C)(C)C)c1OC` (relative stereo) [compound 4, Cis and Trans-2-[3,4-dimethoxy-5-(N-t-butyl-N-hydroxyureidyl)phenyl]-4-(3,4,5-trimethoxyphenyl)-1,3-dithiolane], the values for the IC50 (against 5-LO; in assay [1]) were 0.32 µM and 0.798 µM, respectively. Consider `C=CCOc1c(NC(=O)N(C)O)cc([C@H]2SC[C@H](c3cc(OC)c(OC)c(OC)c3)S2)cc1OC` (relative stereo) [compound 5, Trans-2-[4-allyloxy-3-methoxy-5-(N-hydroxy-N-methylureidyl)phenyl]-4-(3,4,5-trimethoxyphenyl)-1,3-dithiolane], for which the half-inhibitory concentration (IC50) at 5-LO was determined as 0.17 µM; in assay [1] it was 0.561 µM. `C=CCOc1c(NC(=O)N(O)C(C)(C)C)cc([C@H]2SC[C@H](c3cc(OC)c(OC)c(OC)c3)S2)cc1OC` (relative stereo) [compound 6, Trans-2-[4-allyloxy-3-methoxy-5-(N-t-butyl-N-hydroxyureidyl)phenyl]-4-(3,4,5-trimethoxyphenyl)-1,3-dithiolane]: the concentration for half-maximal inhibition (IC50) at 5-LO was found to be 0.57 µM; in assay [1], 0.543 µM. On to `COc1cc([C@H]2CS[C@H](c3cc(OC)c(OCCSc4ccc(O)cc4)c([N+](=O)[O-])c3)S2)cc(OC)c1OC` (relative stereo) [compound 7, Trans-2-[4-{2-(4'-hydroxyphenylthio)ethoxy}-3-methoxy-5-nitrophenyl]-4-(3,4,5-trimethoxyphenyl)-1,3-dithiolane], for which the inhibition at 3 µM at 5-LO was 57%. On the same count and under the same terms, under `COc1cc([C@H]2SC[C@H](c3cc(OC)c(OC)c(OC)c3)S2)cc(N)c1OCCSc1ccc(O)cc1` (relative stereo) [compound 8, Trans-2-[5-amino-4-{2-(4'-hydroxyphenylthio)ethoxy}-3-methoxyphenyl]-4-(3,4,5-trimethoxyphenyl)-1,3-dithiolane] stands 41%. Compound `COc1cc([C@H]2SC[C@H](c3cc(OC)c(OC)c(OC)c3)S2)cc(NC(=O)N(C)O)c1OCCSc1ccc(O)cc1` (relative stereo) [compound 9, Trans-2-[5-(N-hydroxy-N-methylureidyl)-4-{2-(4'-hydroxy-phenylthio)ethoxy}-3-methoxyphenyl]-4-(3,4,5-trimethoxyphenyl)-1,3-dithiolane] returned an IC50 at 5-LO of 0.12 µM. On to `COc1cc([C@H]2SC[C@H](c3cc(OC)c(OC)c(OC)c3)S2)cc(NC(=O)N(O)c2ccc(Cl)cc2)c1OCCSc1ccc(O)cc1` (relative stereo) [compound 10, Trans-2-[5-(N-(p-chlorophenyl)-N-hydroxyureidyl)-4-{2-(4'-hydroxy-phenylthio)ethoxy}-3-methoxyphenyl]-4-(3,4,5-trimethoxyphenyl)-1,3-dithiolane], for which the inhibition at 3 µM at 5-LO amounted to 64%. Take `COc1cc([C@H]2SC[C@H](c3cc(OC)c(OC)c(OC)c3)S2)cc(NC(=O)N(C)O)c1OCCSc1ccc(C#N)cc1` (relative stereo) [compound 13, Trans-2-[5-(N-hydroxy-N-methylureidyl)-4-{2-(4'-cyano-phenylthio)ethoxy}-3-methoxyphenyl]-4-(3,4,5-trimethoxyphenyl)-1,3-dithiolane]: inhibition on 5-LO was half-maximal at 0.092 µM (IC50). Regarding `COc1cc([C@H]2CS[C@H](c3cc(OC)c(OCCSc4ccc(O)cc4)c(N(C)C)c3)S2)cc(OC)c1OC` (relative stereo) [compound 14, Trans-2-[5-(N,N-dimethylamino)-4-{2-(4'-hydroxyphenylthio)ethoxy}-3-methoxyphenyl]-4-(3,4,5-trimethoxyphenyl)-1,3-dithiolane], the inhibition at 3 µM at 5-LO was found to be 25%. `CCCCN(O)C(=O)Nc1cc(C2SCC(c3cc(OC)c(OC)c(OC)c3)S2)cc(OC)c1OC` (stereo not drawn) [compound 3, Trans-2-[3,4-dimethoxy-5-(N-n-butyl-N-hydroxyureidyl)phenyl]-4-(3,4,5-trimethoxyphenyl)-1,3-dithiolane]: the IC50 against 5-LO is 0.24 µM; in assay [1], 0.0678 µM. With `C=CCC1=C[C@@]2(OC)C(=CC1=O)O[C@H](c1ccc(OC)c(OC)c1)[C@H]2C` [kadsurenone], the “PAF receptor antagonist activity” value with PAF receptor is “potent, specific and competitive inhibitor of PAF activity at the receptor level”.
